Reference: US4927959A, “Alprenolol derivatives” (Snow Brand Milk Products Co., Ltd., priority 1987, dated 1990)
Structures can show the parent of a compound that is named as a salt.

Tests used:
[1] = oral administration to dogs, plasma levels of the parent drug and AUC (improving effect on bioavailability); format: in vivo, Female beagle dogs; conditions: beagle dogs; for relationship between dose and AUC (area under the plasma concentration curve) (FIG. 14): alprenolol hydrochloride 2-30 mg/kg, hydrochlorides of (1) and (2) equivalent to 10 and 20 mg/kg; for plasma concentration of the parent drug (FIG. 13): hydrochlorides, dose equivalent to 20 mg/kg of alprenolol hydrochloride, 0.5-6 hours, versus alprenolol hydrochloride
Experimental: In the next step, the alprenolol drivative of this invention was orally administered to dogs as experimental animals. The results described below were obtained by investigating the improving effect on bioavailability. Female beagle dogs (a body weight of about 10 kg) were used as the experimental animals. The 12 dogs were divided into 2 groups of 6 dogs and each group was alternately subjected to the experiment with intervals of 2 weeks. To the dogs, 2, 5, 10, 20 and 30 mg/kg of alprenolol hydrochloride 13.50 and 27.00 mg/kg of the compound (1) hydrochloride, (equivalent to 10, 20 mg/kg of the alprenolol hydrochloride, respectively) and 13.99 and 27.98 mg/kg of the compound (2) hydrochloride (equivalent to 10 and 20 mg/kg of alprenolol hydrochloride, respectively) were orally administered. Blood was collected respectively after 0.5, 1, 2, 4 and 6 hours. The plasma separated from the blood was extracted with ethanol. Plasma levels of the parent drug were determined by HPLC. The conditions for the HPLC analysis are shown as follows: |Column ODS 4.6.phi. × 250 mm |Flow rate 0.8 ml/min |Eluent CH3 CN:CH3 OH:50 mM KH2 PO4

[2] = conversion test to the parent drug (alprenolol) in buffer solution having the pH of 7.4; format: physicochemical; conditions: hydrochloride, Britton-Robinson buffer pH 7.4, 37° C.; for half-life: read-out: Half-life time (T 1/2) (converted); for 50% producing time of the parent drug (T' 1/2): unit assumed
Experimental: Assuming the absorption and distribution of the derivatives in vivo, conversion tests to the parent drug (alprenolol) were carried out by the following method in buffer solutions having the pH of 2, 4 and 7.4.
Britton-Robinson buffer solutions having the pH of 2, 4 and 7.4 were prepared. To each 800 μl of the buffer solution, 200 μl of an aqueous solution of each compound which had been adjusted to a concentration of 2 mg/ml were added. The resulting mixture was incubated at 37° C.
From each reaction mixture, 100 μl of sample were collected after 0, 1, 3, 5, 7 and 24 hours, diluted with a developer and subjected to high performance liquid chromatography (abbreviated as HPLC) under following conditions.
(d) Conditions of HPLC in the conversion test;
(d) Conditions of HPLC in the above conversion test;
As to the compounds (hydrochloride) described in the above (1)-(4), the conversion rate to the parent drug was examined in a buffer solution having the pH of 7.4 assuming blood pH. Table 1 illustrates half-life time (T 1/2) of each compound in the above buffer solution and 50% producing time (T' 1/2) of the parent drug in the same buffer solution.

[3] = cited from earlier work

SMILES | relationship between dose and AUC (area under the plasma concentration curve) (FIG. 14) [1] | half-life [2] | 50% producing time of the parent drug (T' 1/2) [2] | bioavailability of alprenolol in the oral administration [3] | plasma concentration of the parent drug (FIG. 13) [1]
C=CCc1ccccc1OCC(O)CNC(C)C (centres unmarked) [alprenolol hydrochloride, reference compound] | non-linear relationship with the threshold due to the first-pass effect |  |  |  | 
C=CCc1ccccc1OCC(CNC(C)C)OC(=O)/C=C\C(=O)O (centres unmarked) [(4), (z)-Butenedioic acid mono[1-{(2-allylphenoxy)methyl}-{2-(1-methylethyl)amino}ethyl]ester] |  | 0.9 h | 3 h |  | 
C=CCc1ccccc1OCC(O)CNC(C)C (centres unmarked) [alprenolol] |  |  |  | 15% | 
C=CCc1ccccc1OCC(CNC(C)C)OC(=O)CCCC(=O)O (centres unmarked) [(2), pentanedioic acid mono[1-{(2-allylphenoxy)methyl}-{2-(1-methylethyl)amino}ethyl]ester hydrochloride] | linear relationships | 4.9 h | 5 h |  | significantly high plasma concentration of the parent drug
C=CCc1ccccc1OCC(CNC(C)C)OC(=O)CCC(=O)O (centres unmarked) [(1), Butanedioic acid mono[1-{(2-allylphenoxy)methyl}{2-(1-methylethyl)amino}ethyl]ester] | linear relationships | 7.4 h | 5 h |  | significantly high plasma concentration of the parent drug
C=CCc1ccccc1OCC(CNC(C)C)OC(=O)CCCC(=O)OCC (centres unmarked) [(3), 4-Ethoxycarbonylbutanoic acid mono[1-{(2-allylphenoxy)methyl}-{2-(1-methylethyl)amino}ethyl]ester] |  | 1.3 h | 2 h |  | 
